The structures appear in SMILES notation.

We go through one compound from PMC12111648, “New Dimethoxyaryl-Sesquiterpene Derivatives with Cytotoxic Activity Against MCF-7 Breast Cancer Cells: From Synthesis to Topoisomerase I/II Inhibition and Cell Death Mechanism Studies” (International Journal of Molecular Sciences, 2025).

This assay addresses T1, human topoisomerase I (Homo sapiens, UniProt P11387).
T1 construct: purchased Sigma-Aldrich (St. Louis, MO, USA)
T1 sequence (P11387 1-765): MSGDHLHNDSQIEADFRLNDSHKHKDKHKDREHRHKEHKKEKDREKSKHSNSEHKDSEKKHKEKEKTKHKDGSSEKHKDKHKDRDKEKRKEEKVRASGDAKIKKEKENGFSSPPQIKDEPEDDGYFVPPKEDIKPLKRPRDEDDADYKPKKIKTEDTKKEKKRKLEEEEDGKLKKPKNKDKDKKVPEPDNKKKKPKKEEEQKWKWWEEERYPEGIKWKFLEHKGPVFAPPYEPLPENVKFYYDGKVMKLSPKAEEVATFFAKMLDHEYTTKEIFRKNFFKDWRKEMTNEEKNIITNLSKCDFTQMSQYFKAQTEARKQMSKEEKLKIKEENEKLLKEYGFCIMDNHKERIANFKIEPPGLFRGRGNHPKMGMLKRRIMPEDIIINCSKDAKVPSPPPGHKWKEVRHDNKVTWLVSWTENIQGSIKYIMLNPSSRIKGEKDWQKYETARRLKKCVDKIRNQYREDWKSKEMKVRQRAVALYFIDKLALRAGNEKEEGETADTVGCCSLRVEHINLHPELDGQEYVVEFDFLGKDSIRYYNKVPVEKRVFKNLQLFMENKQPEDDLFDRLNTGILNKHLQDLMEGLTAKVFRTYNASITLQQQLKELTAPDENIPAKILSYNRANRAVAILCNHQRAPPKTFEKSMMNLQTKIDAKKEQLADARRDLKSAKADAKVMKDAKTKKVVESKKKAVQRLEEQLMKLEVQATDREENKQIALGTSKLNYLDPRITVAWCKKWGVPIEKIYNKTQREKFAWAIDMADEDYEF
As to the kind of experiment: TOP1 DNA relaxation assay. The format is biochemical. The note with it: 20 μM. On the procedure:
The ability to relax DNA conformations is a central function of topoisomerase enzymes. Several studies have associated some proapoptotic compounds with the ability to inhibit topoisomerase enzymes. The ability of the selected compounds to inhibit TOP1 or TOP2 activity was determined. In this experiment, daunorubicin was used as a positive control for TOP1/2 inhibition, as previously reported. […] It is important to note the potential for cardiotoxicity associated with some TOP2 inhibitors, which highlights the relevance of assessing compound 14c’s interaction with TOP2B. […] Future studies should include assays to evaluate the specific activity of 14c against both TOP2A and TOP2B to provide a more comprehensive safety profile, as isoform-selective TOP2 inhibitors may offer a therapeutic advantage by reducing adverse effects.
TOP1 activity was assayed by the relaxation of supercoiled DNA (pEGFP-N1) as the manufacturer’s instructions indicated. Briefly, human recombinant TOP1 and buffer assay were obtained from Sigma-Aldrich (St. Louis, MO, USA). […]
Figure 7 The effect of sesquiterpene aryl esters on TOP1- and TOP2-induced DNA relaxation was assessed. (A) The TOP1 inhibition assay evaluated the compounds (10c, 11c, 12c, 13c, and 14c) at a concentration of 20 μM in a DNA relaxation assay. […]

For `COc1cc2c(cc1OC)[C@]1(C)CCC3C(C)(C)CCC[C@]3(C)C1=C2` (stereo partly drawn) [Compound 14c, (6aR,11bS)-8,9-Dimethoxy-4,4,6a,11b-tetramethyl-2,3,4,4a,5,6,6a,11b-octahydro-1H-benzo[a]fluorene], the “inhibition of TOP1-induced DNA relaxation” value is given as “did not show significant inhibition”.
